Earlier results, collected in US5849746A, “Substituted 1,4-piperazine-heteroaryl derivatives as 5-HT1D receptor agonists” (Merck Sharp & Dohme Ltd., priority 1995, dated 1998).

Experiments:
[1] = test system: human 5-HT1Dα and 5-HT1Dβ receptor subtypes; conditions: cf. WO-A-91/17174, Table 1
[2] = humans, therapeutic doses

In the case of `CNS(=O)(=O)Cc1ccc2[nH]cc(CCN(C)C)c2c1` [sumatriptan], the “discrimination between human 5-HT1Dα and 5-HT1Dβ receptor subtypes (in words)” value [1] is given as “barely discriminates between the human 5-HT1Dα and 5-HT1Dβ receptor subtypes” and the adverse cardiovascular events [2] is given as “certain adverse cardiovascular events”.
